From patent EP0211268B1, “Slow-release topical formulations” (Zappia, Vincenzo, priority 1985, dated 1987) come the findings set out here.

This series can be described thus: equilibrium dialysis test (slow release of minoxidil ion through a dialysis membrane). It counts as physicochemical. The following applies: 10 ml solution containing 0.45 mmoles, pH 4.4, equilibrated through a dialytic barrier with 130 ml of water at pH 4.4. An excerpt:
A direct experimental evidence of the slow-release mechanism, characterizing the minoxidil-polyanion salts, is obtained by dialysis equilibrium tests, as shown in the enclosed Figure. […] If the dialysis solution is substituted, the equilibrium is recovered after dissociation of a further amount of salt. This process mimicks "in vitro" the drug's slow release action at the skin level, characterized by a constant and uniform absorption of the active principle, whose availability in time is provided by the continuous dissociation of the salt.
When the equilibrium conditions are reached at the points marked by the arrows, the equilibrium solution is removed, substituting it with 130 ml of water, till reestablishment of the new equilibrium conditions.

Structures are written as SMILES.

As to `Cl.Nc1cc(N2CCCCC2)nc(N)[n+]1[O-]` [minoxidil chloride], the “minoxidil found outside the dialysis membrane at equilibrium” value was “about 90%”.
